{"source": "paper PMC10518257", "about": "(Nature Cancer, 2023)", "key": {"[1]": {"tested_on": "Ba/F3-CCDC6::RET", "assay": "Growth inhibition assay in Ba/F3 cells (CellTiter-Glo, 72 h)", "format": "cell-based"}, "[2]": {"tested_on": "LUAD-0002AS1 cells", "assay": "Growth inhibition (alamarBlue, 96 h)", "format": "cell-based, human", "details": "for raw viability signal (Source Data Fig. 3b-c): LUAD-0002AS1, replicate sets"}, "[3]": {"tested_on": "LUAD-0077AS1 PDX", "assay": "PDX efficacy study", "format": "in vivo, NSG mice", "set-up": "Tumor volume: unit not given here", "details": "for Area Under Curve Mean: Fig. 6b LUAD-0077AS1 tumor growth; for Change in tumor volume (block without heading, Fig. 6b) / Tumor volume: LUAD-0077AS1, individual animals"}, "[4]": {"tested_on": "ECLC5 luciferase cells implanted intracranially", "assay": "Intracranial efficacy study", "format": "in vivo, NSG mice", "details": "for Luminescence Data: Fig. 8e ECLC5 intracranial, 50 mg/kg BID, individual animals"}, "[5]": {"tested_on": "Ba/F3 cells expressing KIF5B–RET^G810S", "assay": "Growth inhibition assay in Ba/F3 cells (CellTiter-Glo, 72 h)", "format": "cell-based", "details": "replicate Sets 1-3"}, "[6]": {"tested_on": "Ba/F3 KIF5B–RET^G810R allograft tumors", "assay": "Subcutaneous allograft efficacy study;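 also: mean tumor volume per dosing group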", "format": "in vivo, BALB/c nude mice", "details": "in mm³ (unit assumed)"}, "[7]": {"tested_on": "Ba/F3-CCDC6::RET^S904F", "assay": "Growth inhibition assay in Ba/F3 cells (CellTiter-Glo, 72 h)", "format": "cell-based", "details": "BaF3/CCDC6-RET, read-out: GI50 values, Ba/F3-CCDC6::RET S904F; individual sets (replicate experiments)"}}, "note": "Where “and” joins values, the source holds several entries; their conditions need not be identical. Identical values can stand only once. Like-named read-outs stand apart in the source and are kept apart here."}
{"smiles": "COCc1ccc(NC(=O)c2c(C#CCN3CCOCC3)n(C3(C)CC3)c3ncnc(N)c23)cc1", "note": "[Vepafestinib, 4-amino-N-[4-(methoxymethyl)phenyl]-7-(1-methylcyclopropyl)-6-[3-(morpholin-4-yl)prop-1-yn-1-yl]-7H-pyrrolo[2,3-d]pyrimidine-5-carboxamide]", "values": [{"measurement": "GI50", "setting": "[1]; BaF3/CCDC6-RET, 72 h, read-out: GI50 value (Mean ± SD), Ba/F3-CCDC6::RET, CellTiter-Glo, 72 h", "result": "0.022 ± 0.0093", "unit": "µM"}, {"measurement": "GI50", "setting": "[1]; read-out: GI50 values, Ba/F3-CCDC6::RET, individual sets (replicate experiments)", "result": "0.014 µM and 0.0322 µM and 0.0199 µM"}, {"measurement": "IC50", "setting": "[2]; Homo sapiens, 96 h, read-out: IC50 for Inhibition of Growth (95% CI)", "result": 0.006, "unit": "µM"}, {"measurement": "raw viability signal (Source Data Fig. 3b-c)", "setting": "[2]; 0.01 nM", "result": "16782.2 and 12668.5 and 13089"}, {"measurement": "raw viability signal (Source Data Fig. 3b-c)", "setting": "[2]; 0.1 nM", "result": "15237.2 and 13944 and 12774.4"}, {"measurement": "raw viability signal (Source Data Fig. 3b-c)", "setting": "[2]; 1 nM", "result": "14596.9 and 11925.3 and 12443"}, {"measurement": "raw viability signal (Source Data Fig. 3b-c)", "setting": "[2]; 10 nM", "result": "5820.38 and 4419.86 and 6264.61"}, {"measurement": "raw viability signal (Source Data Fig. 3b-c)", "setting": "[2]; 100 nM", "result": "2459.35 and 2506.15 and 3193.42"}, {"measurement": "raw viability signal (Source Data Fig. 3b-c)", "setting": "[2]; 1000 nM", "result": "1853.86 and 1731.17 and 3413.68"}, {"measurement": "raw viability signal (Source Data Fig. 3b-c)", "setting": "[2]; 10000 nM", "result": "1864.65 and 2510.44 and 3189.66"}, {"measurement": "Area Under Curve Mean", "setting": "[3]; 50 mg/kg BID", "result": 728.7}, {"measurement": "Area Under Curve Mean", "setting": "[3]; 100 mg/kg QD", "result": 549}, {"measurement": "Change in tumor volume (block without heading, Fig. 6b)", "setting": "[3]; 50 mg/kg BID", "result": "60.867 and 57.9883 and 49.0287 and 27.5983 and 23.1229"}, {"measurement": "Tumor volume", "setting": "[3]; 50 mg/kg BID, treatment day 0", "result": "82.36 (2×) and 88.7 and 83.97 and 85.5"}, {"measurement": "Tumor volume", "setting": "[3]; 50 mg/kg BID, treatment day 4", "result": "85.5 (3×) and 82.36 and 83.97"}, {"measurement": "Tumor volume", "setting": "[3]; 50 mg/kg BID, treatment day 7", "result": "80.89 (2×) and 82.36 (2×) and 85.5"}, {"measurement": "Tumor volume", "setting": "[3]; 50 mg/kg BID, treatment day 11", "result": "80.89 (3×) and 74.9 and 77.87"}, {"measurement": "Tumor volume", "setting": "[3]; 50 mg/kg BID, treatment day 14", "result": "95.03 and 87.03 and 102.07 (3×)"}, {"measurement": "Tumor volume", "setting": "[3]; 50 mg/kg BID, treatment day 19", "result": "105.09 and 109.21 and 122.74 and 135.08 (2×)"}, {"measurement": "Tumor volume", "setting": "[3]; 50 mg/kg BID, treatment day 22", "result": "186.96 and 181.98 and 192.42 and 159.66 and 197.96"}, {"measurement": "Tumor volume", "setting": "[3]; 50 mg/kg BID, treatment day 25", "result": "232.25 (2×) and 250.35 (2×) and 247.99"}, {"measurement": "Change in tumor volume (block without heading, Fig. 6b)", "setting": "[3]; 100 mg/kg QD", "result": "67.7861 and 60.2113 and 54.3275 and 44.2105 and 25.5424"}, {"measurement": "Tumor volume", "setting": "[3]; 100 mg/kg QD, treatment day 0", "result": "82.36 and 83.97 and 87.11 and 85.5 (2×)"}, {"measurement": "Tumor volume", "setting": "[3]; 100 mg/kg QD, treatment day 4", "result": "85.5 (2×) and 83.97 (2×) and 88.7"}, {"measurement": "Tumor volume", "setting": "[3]; 100 mg/kg QD, treatment day 7", "result": "82.36 and 72.18 and 79.42 and 77.87 and 79.29"}, {"measurement": "Tumor volume", "setting": "[3]; 100 mg/kg QD, treatment day 11", "result": "79.29 (2×) and 65.37 and 72.18 and 77.87"}, {"measurement": "Tumor volume", "setting": "[3]; 100 mg/kg QD, treatment day 14", "result": "114.83 and 111.18 and 83.83 (3×)"}, {"measurement": "Tumor volume", "setting": "[3]; 100 mg/kg QD, treatment day 19", "result": "131.95 (2×) and 140.89 and 109.36 and 123.3"}, {"measurement": "Tumor volume", "setting": "[3]; 100 mg/kg QD, treatment day 22", "result": "136.38 and 156.56 and 135.08 and 138.33 and 147.55"}, {"measurement": "Tumor volume", "setting": "[3]; 100 mg/kg QD, treatment day 25", "result": "213.8 and 205.8 and 189.86 and 177.9 and 205.88"}, {"measurement": "survival time", "setting": "[4]; 50 mg per kg BID, all animals alive", "result": "> 139 d of treatment"}, {"measurement": "Luminescence Data", "setting": "[4]; treatment day 0 (=1)", "result": 1}, {"measurement": "Luminescence Data", "setting": "[4]; treatment day 5, day 0 = 1, 50 mg/kg", "result": "0.4116 and 0.5677 and 0.6168 and 0.1116 and 0.9191 and 0.3141"}, {"measurement": "Luminescence Data", "setting": "[4]; treatment day 12, day 0 = 1, 50 mg/kg", "result": "0.3041 and 0.6223 and 0.3951 and 0.05187 and 0.856 and 0.4174"}, {"measurement": "Luminescence Data", "setting": "[4]; treatment day 18, day 0 = 1, 50 mg/kg", "result": "0.3959 and 0.7406 and 0.6024 and 0.03931 and 0.9545 and 0.2802"}, {"measurement": "Luminescence Data", "setting": "[4]; treatment day 26, day 0 = 1, 50 mg/kg", "result": "0.3977 and 0.5749 and 0.4469 and 0.01537 and 0.7719 and 0.2517"}, {"measurement": "Luminescence Data", "setting": "[4]; treatment day 33, day 0 = 1, 50 mg/kg", "result": "0.4164 and 0.7522 and 0.6219 and 0.01856 and 1.136 and 0.285"}, {"measurement": "Luminescence Data", "setting": "[4]; treatment day 40, day 0 = 1, 50 mg/kg", "result": "0.3201 and 0.5375 and 0.4135 and 0.01963 and 0.792 and 0.1799"}, {"measurement": "Luminescence Data", "setting": "[4]; treatment day 46, day 0 = 1, 50 mg/kg", "result": "0.3305 and 0.5368 and 0.3264 and 0.008566 and 0.9694 and 0.2044"}, {"measurement": "Luminescence Data", "setting": "[4]; treatment day 55, day 0 = 1, 50 mg/kg", "result": "0.516 and 0.834 and 0.6149 and 0.01696 and 1.167 and 0.3646"}, {"measurement": "Luminescence Data", "setting": "[4]; treatment day 61, day 0 = 1, 50 mg/kg", "result": "0.3872 and 0.6582 and 0.5284 and 0.01449 and 1.158 and 0.246"}, {"measurement": "Luminescence Data", "setting": "[4]; treatment day 68, day 0 = 1, 50 mg/kg", "result": "0.3804 and 0.71 and 0.4932 and 0.01469 and 1.521 and 0.2588"}, {"measurement": "Luminescence Data", "setting": "[4]; treatment day 75, day 0 = 1, 50 mg/kg", "result": "0.2695 and 0.603 and 0.5415 and 0.02346 and 1.537 and 0.2239"}, {"measurement": "Luminescence Data", "setting": "[4]; treatment day 82, day 0 = 1, 50 mg/kg", "result": "0.477 and 0.7647 and 0.421 and 0.02545 and 2.278 and 0.2761"}, {"measurement": "Luminescence Data", "setting": "[4]; treatment day 89, day 0 = 1, 50 mg/kg", "result": "0.4292 and 0.858 and 0.6342 and 0.04079 and 3.665 and 0.3289"}, {"measurement": "Luminescence Data", "setting": "[4]; treatment day 96, day 0 = 1, 50 mg/kg", "result": "0.3189 and 0.6963 and 0.5402 and 0.01338 and 5.016 and 0.1926"}, {"measurement": "Luminescence Data", "setting": "[4]; treatment day 103, day 0 = 1, 50 mg/kg", "result": "0.4201 and 0.6542 and 0.7489 and 0.02359 and 6.915 and 0.2847"}, {"measurement": "Luminescence Data", "setting": "[4]; treatment day 110, day 0 = 1, 50 mg/kg", "result": "0.2991 and 0.6305 and 0.5409 and 0.02851"}, {"measurement": "GI50", "setting": "[5]; Ba/3-KIF5B-RET-G810S", "result": "0.0147 µM and 0.0131 µM"}, {"measurement": "GI50", "setting": "[5]; Mus musculus, BaF3, Ba/3-KIF5B-RET-G810S", "result": 0.00793, "unit": "µM"}, {"measurement": "Tumor Volume Mean", "setting": "[6]; Fig. 7c Ba/F3-KIF5B::RET G810R, vepafestinib 10 mg/kg BID, day 1", "result": 153.82}, {"measurement": "Tumor Volume Mean", "setting": "[6]; Fig. 7c Ba/F3-KIF5B::RET G810R, vepafestinib 10 mg/kg BID, day 4", "result": 151.29}, {"measurement": "Tumor Volume Mean", "setting": "[6]; Fig. 7c Ba/F3-KIF5B::RET G810R, vepafestinib 10 mg/kg BID, day 8", "result": 262.19}, {"measurement": "Tumor Volume Mean", "setting": "[6]; Fig. 7c Ba/F3-KIF5B::RET G810R, vepafestinib 10 mg/kg BID, day 11", "result": 374.99}, {"measurement": "Tumor Volume Mean", "setting": "[6]; Fig. 7c Ba/F3-KIF5B::RET G810R, vepafestinib 10 mg/kg BID, day 15", "result": 551.42}, {"measurement": "Tumor Volume Mean", "setting": "[6]; Fig. 7d Ba/F3-KIF5B::RET G810R, vepafestinib 50 mg/kg BID, day 1", "result": 158.4}, {"measurement": "Tumor Volume Mean", "setting": "[6]; Fig. 7d Ba/F3-KIF5B::RET G810R, vepafestinib 50 mg/kg BID, day 4", "result": 122.1}, {"measurement": "Tumor Volume Mean", "setting": "[6]; Fig. 7d Ba/F3-KIF5B::RET G810R, vepafestinib 50 mg/kg BID, day 8", "result": 133.3}, {"measurement": "Tumor Volume Mean", "setting": "[6]; Fig. 7d Ba/F3-KIF5B::RET G810R, vepafestinib 50 mg/kg BID, day 11", "result": 139.6}, {"measurement": "Tumor Volume Mean", "setting": "[6]; Fig. 7d Ba/F3-KIF5B::RET G810R, vepafestinib 50 mg/kg BID, day 15", "result": 173.1}, {"measurement": "GI50", "setting": "[7]", "result": 0.0285, "unit": "µM"}]}
